Experimental data from patent US20190142971A1, “FORMULATION AND DELIVERY OF MODIFIED NUCLEOSIDE, NUCLEOTIDE, AND NUCLEIC ACID COMPOSITIONS” (ModernaTX, Inc., priority 2013, published 2019).

Experiments:
C57/BL6 mice = assay: Example 47: luciferase mRNA IM, SC, IV in mice, bioluminescence imaging (Tables 76-78); assay type: in vivo
Experimental: Modified RNA was delivered to C57/BL6 mice intramuscularly, subcutaneously, or intravenously to evaluate the bio-distribution of modified RNA using luciferase. A formulation buffer used with all delivery methods contained 150 mM sodium chloride, 2 mM calcium chloride, 2 mM Na+-phosphate which included 1.4 mM monobasic sodium phosphate and 0.6 mM of dibasic sodium phosphate, and 0.5 mM ethylenediaminetetraacetic acid (EDTA) was adjusted using sodium hydroxide to reach a final pH of 6.5 before being filtered and sterilized. A 1× concentration was used as the delivery buffer. To create the lipoplexed solution delivered to the mice, in one vial […] was equilibrated for 10 minutes at room temperature in the delivery buffer and in a second vial 10 μl RNAiMAX™ was equilibrated for 10 minutes at room temperature in the delivery buffer. After equilibrium, the vials were combined and delivery buffer was added to reach a final volume of 100 μl which was then incubated for 20 minutes at room temperature. Luciferin was administered by intraperitoneal injection (IP) at 150 mg/kg to each mouse prior to imaging during the plateau phase of the luciferin exposure curve which was between 15 and 30 minutes. To create luciferin, 1 g of D-luciferin potassium or sodium salt was dissolved in 66.6 ml of distilled phosphate buffer solution (DPBS), not containing Mg2+ or Ca2+, to make a 15 mg/ml solution. The solution was gently mixed and passed through a 0.2 μm syringe filter, before being purged with nitrogen, aliquoted and frozen at −80° C. while being protected from light as much as possible. The solution was thawed using a waterbath if luciferin was not dissolved, gently mixed and kept on ice on the day of dosing.
Whole body images were taken of each mouse 2, 8 and 24 hours after dosing. Tissue images and serum was collected from each mouse 24 hours after dosing. Mice administered doses intravenously had their liver, spleen, kidneys, lungs, heart, peri-renal adipose tissue and thymus imaged. Mice administered doses intramuscularly or subcutaneously had their liver, spleen, kidneys, lungs, peri-renal adipose tissue, and muscle at the injection site. From the whole body images the bioluminescence was measured in photon per second for each route of administration and dosing regimen.
The bioluminescence average for the luciferase expression signals for each group at 2, 8 and 24 hours after dosing are shown in Table 76.
(§1) Mice were subcutaneously (S.C.) administered either modified luciferase mRNA (Naked-Luc), lipoplexed modified luciferase mRNA (Lipoplex-luc), lipoplexed modified G-CSF mRNA (Lipoplex-G-CSF) or the formation buffer at a single dose of 50 μg of modified mRNA in an injection volume of 100 μl for each formulation. The bioluminescence average for the luciferase expression signals for each group at 2, 8 and 24 hours after dosing are shown in Table 77.
as §1, with “intravenously (I.V.)” for “subcutaneously (S.C.)”, “signal in the spleen from” for “signals for”, “2” for “2, 8 and 24”, “is” for “are”, “78.” for “77.”

[1] = test system: peripheral blood mononuclear cells (PBMC); assay: Example 46A: percent modification, PBMC G-CSF ELISA (Table 73); assay type: cell-based, human
Experimental: 960 ng of G-CSF mRNA modified with 5-methylcytosine (5mC) and pseudouridine (pseudoU) or unmodified G-CSF mRNA was transfected with 0.8 uL of Lipofectamine 2000 into peripheral blood mononuclear cells (PBMC) from three normal blood donors (D1, D2, D3). […] The supernatant was harvested and run by ELISA 22 hours after transfection to determine the protein expression. The expression of IFN-alpha and TNF-alpha may be a secondary effect from the transfection of the G-CSF mRNA.

C57BL/6 = assay: Example 114: mouse EPO mRNA electroporation multi-dose, serum EPO (Tables 183, 184); assay type: in vivo, mice; settings: mouse EPO mRNA in PBS, IM 0.2 mg/kg per dose with EP
Experimental: Serum was collected from the mice at 24 hours post the first, second, third and fourth doses.

mice = assay: Example 48: split dose study EPO mmRNA IM in mice, serum EPO, dose splitting factor (Table 79); assay type: in vivo
Experimental: The dosing vehicle (F. buffer) consisted of 150 mM NaCl, 2 mM CaCl2), 2 mM Natphosphate (1.4 mM monobasic sodium phosphate; 0.6 mM dibasic sodium phosphate), and 0.5 mM EDTA, pH 6.5. The pH was adjusted using sodium hydroxide and the final solution was filter sterilized.
Animals (n=5) were injected IM (intramuscular) for the single unit dose of 100 ug. For multi-dosing, two schedules were used, 3 doses of 100 ug and 6 doses of 100 ug. For the split dosing scheme, two schedules were used, 3 doses at 33.3 ug and 6 doses of 16.5 ug mmRNA. Control dosing involved use of buffer only at 6 doses. […] Blood and muscle tissue were evaluated 13 hrs post injection.
Human EPO protein was measured in mouse serum 13 h post I.M. single, multi- or split dosing of the EPO mmRNA in buffer. Seven groups of mice (n=5 mice per group) were treated and evaluated.
The splitting factor is defined as the product per unit drug divided by the single dose product per unit drug (PUD). For example for treatment group 2 the value 0.28 or product (EPO) per unit drug (mmRNA) is divided by the single dose product per unit drug of 0.14. The result is 2. Likewise, for treatment group 4, the value 1.1 or product (EPO) per unit drug (mmRNA) is divided by the single dose product per unit drug of 0.14. The result is 7.9. Consequently, the dose splitting factor (DSF) may be used as an indicator of the efficacy of a split dose regimen. For any single administration of a total daily dose, the DSF should be equal to 1. Therefore any DSF greater than this value in a split dose regimen is an indication of increased efficacy.

“Luciferase: luciferase mRNA, SEQ ID NO: 14, Cap1, fully modified with 5-methylcytosine and pseudouridine” was tested, and the Bioluminescence (C57/BL6 mice; I.M., Dose 5 ug, 2 hours) was 224,000 photon/sec, the Bioluminescence (C57/BL6 mice; I.M., Dose 5 ug, 8 hours) was 683,000 photon/sec and the Bioluminescence (C57/BL6 mice; I.M., Dose 5 ug, 24 hours) was 927,000 photon/sec. For the same molecule, the Bioluminescence (C57/BL6 mice; I.M., Dose 50 ug, 2 hours) was 446,000 photon/sec, the Bioluminescence (C57/BL6 mice; I.M., Dose 50 ug, 8 hours) was 766,000 photon/sec and the Bioluminescence (C57/BL6 mice; I.M., Dose 50 ug, 24 hours) was 509,000 photon/sec. The “Bioluminescence of the Spleen” value (C57/BL6 mice; I.V., 50 μg, 2 hours after dosing) was 58,400 photon/sec, the Bioluminescence (C57/BL6 mice; S.C., 50 μg, 2 hours) was 3,700,000 photon/sec and the Bioluminescence (C57/BL6 mice; S.C., 50 μg, 8 hours) was 8,060,000 photon/sec. The Bioluminescence (C57/BL6 mice; S.C., 50 μg, 24 hours) was 2,080,000 photon/sec, the “G-CSF Expression” value ([1]; PBMC donor D1, 960 ng mRNA) was 14.5 pg/mL and the “G-CSF Expression” value ([1]; PBMC donor D2, 960 ng mRNA) was 3.1 pg/mL. The “G-CSF Expression” value ([1]; PBMC donor D3, 960 ng mRNA) was 10.0 pg/mL.

B1: EPO: modified mRNA encoding human erythropoietin, SEQ ID NO: 7, Cap1, fully modified with 5-methylcytosine and pseudouridine; LNP NPA-060-1 in Examples 17-22 (nucleic acid)
chain: GGGAAAUAAGAGAGAAAAGAAGAGUAAGAAGAAAUAUAAGAGCCACCAUGGGAGUGCACGAGUGUCCCGCGUGGUUGUGGUUGCUGCUGUCGCUCUUGAGCCUCCCACUGGGACUGCCUGUGCUGGGGGCACCACCCAGAUUGAUCUGCGACUCACGGGUACUUGAGAGGUACCUUCUUGAAGCCAAAGAAGCCGAAAACAUCACAACCGGAUGCGCCGAGCACUGCUCCCUCAAUGAGAACAUUACUGUACCGGAUACAAAGGUCAAUUUCUAUGCAUGGAAGAGAAUGGAAGUAGGACAGCAGGCCGUCGAAGUGUGGCAGGGGCUCGCGCUUUUGUCGGAGGCGGUGUUGCGGGGUCAGGCCCUCCUCGUCAACUCAUCACAGCCGUGGGAGCCCCUCCAACUUCAUGUCGAUAAAGCGGUGUCGGGGCUCCGCAGCUUGACGACGUUGCUUCGGGCUCUGGGCGCACAAAAGGAGGCUAUUUCGCCGCCUGACGCGGCCUCCGCGGCACCCCUCCGAACGAUCACCGCGGACACGUUUAGGAAGCUUUUUAGAGUGUACAGCAAUUUCCUCCGCGGAAAGCUGAAAUUGUAUACUGGUGAAGCGUGUAGGACAGGGGAUCGCUGAUAAGCUGCCUUCUGCGGGGCUUGCCUUCUGGCCAUGCCCUUCUUCUCUCCCUUGCACCUGUACCUCUUGGUCUUUGAAUAAAGCCUGAGUAGGAAG
modifications: Cap1, 5-methylcytosine, pseudouridine
With B1 the “First Dose EPO” value (C57BL/6; serum 24 hours post first dose) was 151.9 pg/mL, the “Fourth Dose EPO” value (C57BL/6; serum 24 hours post fourth dose) was 258.1 pg/mL and the “Second Dose EPO” value (C57BL/6; serum 24 hours post second dose) was 357.8 pg/mL. For the same molecule, the “Third Dose EPO” value (C57BL/6; serum 24 hours post third dose) was 898.5 pg/mL, the “product (EPO) per unit drug (mmRNA)” value (mice; single dose) was 0.14 and the “dose splitting factor (DSF)” value (mice; treatment group 2) was 2. The “product (EPO) per unit drug (mmRNA)” value (mice; treatment group 2) was 0.28, the “dose splitting factor (DSF)” value (mice; treatment group 4) was 7.9 and the “product (EPO) per unit drug (mmRNA)” value (mice; treatment group 4) was 1.1.
